Columns and labels:
KOR = molecular target: T1, KOR (Mus musculus, UniProt P33534); assay: competitive radioligand binding assay, KOR; conditions: CHO cell membranes; mean ± SEM (n ≥ 3)
T1 construct: expressed in transfected cells; host or cells: CHO cells (provided by Dr. Selley, Virginia Commonwealth University)

[1] = molecular target: T2, human δ-opioid receptor (DOR) (Homo sapiens, UniProt P41143); assay: competitive radioligand binding assay, DOR; conditions: CHO cell membranes; mean ± SEM (n ≥ 3)
T2 construct: expressed in transfected cells; host or cells: CHO cells (provided by Dr. Selley, Virginia Commonwealth University)

MOR = molecular target: T3, MOR (Mus musculus, UniProt P42866); assay: [35S]-GTPγS functional assay at MOR; format: biochemical; conditions: relative to 3 μM DAMGO; mean ± SEM (n ≥ 3)
T3 construct: expressed in transfected cells

O=C(N[C@H]1CC[C@@]2(O)[C@H]3Cc4ccc(O)c5c4[C@@]2(CCN3CC2CC2)[C@H]1O5)c1cccc2cc[nH]c12 [NAN, 17-cyclopropylmethyl-3,14β-dihydroxy-4,5α-epoxy-6α-(indole-7-carboxamido)morphinan]
Ki (KOR): 1.69 ± 0.35 nM | Ki [1]: 13.7 ± 1.39 nM | MOR [35S]-GTPγS binding % Emax of DAMGO (MOR): 19.11 ±3.31%
